These results are taken from ChEMBL document CHEMBL1201862, “PubChem BioAssay data set” (2004).

Common to all, as to test: NCI tumour cell line growth inhibition, 48 h
Experiment [1] relates to HCT-116.
Experiment [2] has as its system SNB-75.
Experiment [3] deals with NCI-H522.
Experiment [4] has as its system HOP-62.
Experiment [5] deals with OVCAR-8.
Experiment [6] concerns SNB-19.
For experiment [7], the system named is MDA-MB-435.
The subject of experiment [8] is SK-MEL-5.
Experiment [9] relates to CAKI-1.
Experiment [10] concerns 786-0.
Experiment [11] relates to HOP-92.
In experiment [12] the test system is MCF7.
Experiment [13] has as its system RPMI-8226.
Experiment [14] relates to NCI-H460.
Experiment [15] relates to HCT-15.
Experiment [16] relates to HL-60.
Experiment [17] has as its system RXF 393.
Experiment [18] relates to COLO 205.
In experiment [19] the test system is UACC-62.
Experiment [20] relates to SK-MEL-2.

Molecules are shown by their SMILES.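 Results reflect a 48-hour exposure of cells in 96-well plates to compound at five concentrations. GI50: concentration for 50% inhibition of growth.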 The source made the active and inactive calls. No stated cut-off is given here; in the data, active = GI50 up to about 1.1 µM and inactive = higher.

For the molecule `O=C(NCCN1CCOCC1)c1cn2c(ccc3sc4ccccc4c(=O)c32)n1`, the GI50 in experiment [1] is 5.22 µM (inactive); in experiment [2], 24.8 µM (inactive); in [3], 10.7 µM (inactive); in experiment [4], 12.3 µM (inactive); in [5], > 100 µM (inactive); in experiment [6], 87.5 µM (inactive). Further, the GI50 in experiment [7] was 16.4 µM (inactive); in experiment [8], 9.77 µM (inactive); in experiment [9], > 100 µM (inactive); in [10], 13.6 µM (inactive); in experiment [11], 12.8 µM (inactive); in [12] it was 7.08 µM (inactive). Also, the GI50 in [13] is 8.24 µM (inactive); in experiment [14] it was 4.02 µM (inactive); in experiment [15], 10.3 µM; in [16] it was 8.02 µM (inactive); in experiment [17] it was 22 µM (inactive); in experiment [18], 7.24 µM (inactive).
Take `CC1(C)CCC[C@]2(C)[C@@H]1CC[C@@]13O[C@@H]1C1=C(CO)C(=O)OC1=C[C@@H]23`: the GI50 in experiment [1] was 1.44 µM (inactive); in [19] it was 13.5 µM (inactive); in experiment [2], 30.5 µM (inactive); in experiment [3], 10.1 µM (inactive); in experiment [4], 25.6 µM (inactive); in [6], 13.6 µM (inactive). The GI50 was 20.5 µM (inactive) in [7]; 15.5 µM (inactive) in experiment [8]; 18.8 µM (inactive) in experiment [9]; 14.3 µM (inactive) in experiment [10]; 15.4 µM (inactive) in [11]; 26.4 µM (inactive) in experiment [12]. Besides, the GI50 was 22.8 µM (inactive) in experiment [20]; 21.1 µM (inactive) in [13]; 18.2 µM (inactive) in [14]; 14.4 µM in [15]; 19.9 µM (inactive) in experiment [17]; 16.5 µM (inactive) in experiment [18].
For `O=C(O)CC[N+]1=CCC(c2ccccc2)(c2ccccc2)O1`, the GI50 in experiment [1] was > 100 µM (inactive); in experiment [19], > 100 µM (inactive); in experiment [2], 44.1 µM (inactive); in [3], > 100 µM (inactive); in [4] it was > 100 µM (inactive); in experiment [5], > 100 µM (inactive). Besides, the GI50 in experiment [6], in [7], in [8], in experiment [9], in experiment [10] and in experiment [11] was > 100 µM (inactive) each time. The GI50 was > 100 µM (inactive) in [12]; > 100 µM (inactive) in [20]; > 100 µM (inactive) in experiment [14]; above 100 µM in [15]; > 100 µM (inactive) in experiment [17]; > 100 µM (inactive) in [18].
Regarding `CCCN(CCC)C(=S)N/N=C/c1ccccn1`, the GI50 in [1] was < 0.01 µM (active); in experiment [2], 0.0586 µM (active); in [3], < 0.01 µM (active); in experiment [4] it was < 0.01 µM (active); in [5] it was < 0.01 µM (active); in experiment [6], 0.282 µM (active). Moreover, the GI50 in experiment [7] is 0.17 µM (active); in experiment [8], < 0.0173 µM (active); in experiment [9], 0.0169 µM (active); in [10] it was < 0.01 µM (active); in experiment [11], 0.169 µM (active); in [12], < 0.01 µM (active). In addition, the GI50 was < 0.0385 µM (active) in experiment [20]; < 0.01 µM (active) in [13]; 0.0103 µM (active) in experiment [14]; below 0.01 µM in experiment [15]; < 0.01 µM (active) in [16]; 0.0566 µM (active) in [17]. Further, in experiment [18], the GI50 is < 0.0186 µM (active).
With `[N-]=[N+]=NC1(N=[N+]=[N-])C(=O)NN=C(c2ccccc2)C1=O` (stereo unspecified), the GI50 was 16.8 µM (inactive) in [1]; 57.7 µM (inactive) in experiment [19]; > 100 µM (inactive) in experiment [2]; > 100 µM (inactive) in experiment [3]; > 100 µM (inactive) in experiment [4]; 82.2 µM (inactive) in [5]. Moreover, the GI50 in experiment [7] was 18.4 µM (inactive); in [10], > 100 µM (inactive); in [11], > 100 µM (inactive); in [12], 62.7 µM (inactive); in [13] it was 41.3 µM (inactive); in experiment [14], > 100 µM (inactive). The GI50 in experiment [15] is above 100 µM; in experiment [16], 35.3 µM (inactive); in experiment [17], 45.5 µM (inactive); in [18], > 100 µM (inactive).
For `CN(C)/C=N/c1ccc2c3c(cccc13)-c1ccccc1-2`, the GI50 in experiment [1] is 15.4 µM (inactive); in experiment [19], 18.6 µM (inactive); in [2], 13 µM (inactive); in [3], 3.66 µM (inactive); in [4], 16 µM (inactive); in [5], 14.6 µM (inactive). Further, the GI50 in experiment [6] is 14.4 µM (inactive); in [7] it was 15.1 µM (inactive); in [8] it was 14.9 µM (inactive); in experiment [10] it was 12.6 µM (inactive); in [11], 12.4 µM (inactive); in experiment [12], 16.8 µM (inactive). The GI50 in [20] was 17.1 µM (inactive); in experiment [13], 10.4 µM (inactive); in experiment [15], 11.8 µM; in experiment [16] it was 5.58 µM (inactive); in experiment [17], 7.83 µM (inactive); in experiment [18], 16.6 µM (inactive).
On to `CC(C)CCC/C(CBr)=C(\Cl)CCl`, for which the GI50 in experiment [1] was 2.69 µM (inactive); in experiment [2] it was 1.95 µM (inactive); in [3], 0.15 µM (active); in [4] it was 8.02 µM (inactive); in experiment [5], 1.56 µM (inactive); in experiment [6], 14.5 µM (inactive). Further, the GI50 was 2.36 µM (inactive) in experiment [7]; 1.95 µM (inactive) in [8]; 5.06 µM (inactive) in experiment [9]; 1.85 µM (inactive) in experiment [10]; 2.14 µM (inactive) in experiment [11]; 4.08 µM (inactive) in [12]. Also, the GI50 in [20] is 1.46 µM (inactive); in experiment [13], 0.948 µM (active); in experiment [14] it was 5.05 µM (inactive); in [15], 2.8 µM; in experiment [16], 0.103 µM (active); in experiment [17], 1.57 µM (inactive). Moreover, the GI50 in experiment [18] was 1.83 µM (inactive).
In the case of `Cn1c2c(c3c(=O)[nH]ncc31)Cc1ccccc1-2`, the GI50 in experiment [1] was 3.64 µM (inactive); in [2], 16.1 µM (inactive); in [3], 17.8 µM (inactive); in experiment [4] it was 22.5 µM (inactive); in [5] it was 11.7 µM (inactive); in experiment [6], 18.2 µM (inactive). Also, the GI50 in experiment [7] was 14.3 µM (inactive); in experiment [8], 12.2 µM (inactive); in experiment [9], 13.3 µM (inactive); in [10], 6.37 µM (inactive); in experiment [11], 25.2 µM (inactive); in [12], 11.5 µM (inactive). In addition, the GI50 in experiment [20] is 21.3 µM (inactive); in [13], 15.9 µM (inactive); in experiment [14], 3.04 µM (inactive); in experiment [15] it was 11.1 µM; in experiment [16], 14.7 µM (inactive); in experiment [17], 15.5 µM (inactive). Further, in experiment [18], the GI50 was 10.9 µM (inactive).
For `CN1CCN(c2nc3cc(F)ccc3n3cccc23)CC1`, the GI50 in experiment [1] was 25.5 µM (inactive); in [19] it was 29.4 µM (inactive); in experiment [2] it was 29 µM (inactive); in experiment [3], 46.5 µM (inactive); in experiment [4], 31 µM (inactive); in experiment [5] it was 51.8 µM (inactive). The GI50 in [6] is 60.3 µM (inactive); in experiment [7], 23.4 µM (inactive); in [8], 20.6 µM (inactive); in [9] it was 22 µM (inactive); in experiment [10], 40.4 µM (inactive); in experiment [11], 30.2 µM (inactive). For the same molecule, the GI50 in experiment [12] is 15.1 µM (inactive); in [13], 40.6 µM (inactive); in experiment [14] it was 18.5 µM (inactive); in [15] it was 32.1 µM; in experiment [16] it was 39.1 µM (inactive); in experiment [17], 23.4 µM (inactive). For the same molecule, the GI50 in experiment [18] is 26.9 µM (inactive).
Consider `COC(=O)C1=C(C)NC(C)=C([N+](=O)[O-])C1c1cccc(N=O)c1` (stereo unspecified), for which the GI50 in experiment [1] is 10.8 µM (inactive); in [19], 15.5 µM (inactive); in experiment [3], 1.66 µM (inactive); in experiment [4], 19.2 µM (inactive); in experiment [5] it was 16.3 µM (inactive); in experiment [6] it was 29.7 µM (inactive). The GI50 is 12.7 µM (inactive) in experiment [7]; 15.6 µM (inactive) in experiment [8]; 7.96 µM (inactive) in [9]; 14.2 µM (inactive) in experiment [10]; 2.83 µM (inactive) in [11]; 17.4 µM (inactive) in [12]. For the same molecule, the GI50 in experiment [20] is 18.2 µM (inactive); in experiment [13] it was 4.29 µM (inactive); in experiment [14] it was 16.5 µM (inactive); in [15], 14.2 µM; in experiment [16], > 100 µM (inactive); in experiment [17] it was 13.8 µM (inactive). The GI50 in experiment [18] is 15.7 µM (inactive).
On to `CC(C)=CCNc1ncnc2c1ncn2CCC#N`, for which the GI50 in experiment [1] is > 100 µM (inactive); in [19], > 100 µM (inactive); in experiment [2] it was 19.8 µM (inactive); in [3], > 100 µM (inactive); in [4] it was > 100 µM (inactive); in [5], > 100 µM (inactive). Further, the GI50 in experiment [6], in experiment [7], in experiment [8], in experiment [10], in [11] and in experiment [12] was > 100 µM (inactive) throughout. The GI50 in [13] was > 100 µM (inactive); in experiment [14] it was > 100 µM (inactive); in experiment [15], above 100 µM; in [16], > 100 µM (inactive); in [17], 2.21 µM (inactive); in experiment [18] it was > 100 µM (inactive).
